From ChEMBL document CHEMBL5726928, “Aryl, heteroaryl, and heterocyclic compounds for treatment of medical disorders” (2019)

Molecular target: Complement factor D (Homo sapiens, UniProt P00746)
Experiment: Human Factor D Assay: Human Factor D (purified from human serum, Complement Technology, Inc.) at 80 nM final concentration was incubated with test compound at various concentrations for 5 minutes at room temperature in 50 mM Tris, 1M NaCl, pH 7.5. A synthetic substrate Z-L-Lys-SBzl and DTNB (Ellman's reagent) are added to final concentrations of 100 μM each. […] IC50 values are calculated by nonlinear regression of complement Factor D reaction rates as a function of test compound concentration.

Sequence of Complement factor D (P00746 whole entry): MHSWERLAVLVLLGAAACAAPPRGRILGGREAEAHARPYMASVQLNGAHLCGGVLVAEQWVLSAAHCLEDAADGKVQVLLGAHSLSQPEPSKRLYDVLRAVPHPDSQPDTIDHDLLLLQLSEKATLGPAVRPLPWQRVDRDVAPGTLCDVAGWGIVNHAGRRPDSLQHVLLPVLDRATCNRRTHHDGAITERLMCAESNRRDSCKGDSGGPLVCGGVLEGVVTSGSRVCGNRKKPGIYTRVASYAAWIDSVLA

| Structure (SMILES) | IC50 [nM] |
| --- | --- |
| CC(=O)c1nn(CC(=O)N2C[C@H](F)C[C@H]2C(=O)Nc2cccc(Br)n2)c2ccc(-c3cnnc(C)c3)cc12 | < 1000 |
| CC(=O)c1nn(CC(=O)N2C[C@H](F)C[C@H]2C(=O)N[C@H]2C[C@@H]2c2ccccc2Cl)c2ccc(-c3cnc(C)nc3)cc12 | < 1000 |
| CC(=O)c1nn(CC(=O)N2C[C@H](F)C[C@H]2C(=O)Nc2ccn(CCC(F)(F)F)n2)c2ccc(-c3cnc(C)nc3)cc12 | < 1000 |
| CC(=O)c1nn(CC(=O)N2C[C@H](F)C[C@H]2C(=O)Nc2cccc(OC(F)(F)F)n2)c2ccc(-c3cnc(N)nc3)cc12 | < 1000 |
| CC(=O)c1nn(CC(=O)N2C[C@H](F)C[C@H]2C(=O)Nc2cccnn2)c2ccc(-c3cnc4cc(C)nn4c3)cc12 | < 1000 |
| CC(=O)c1nn(CC(=O)N2C[C@H](F)C[C@H]2C(=O)Nc2nc(Br)ccc2Cl)c2ccc(-c3cnc(C)nc3)cc12 | < 1000 |
| CC(=O)c1nn(CC(=O)N2[C@H](C(=O)NCc3cccc(Cl)c3)C[C@@]3(C)C[C@@H]23)c2ccc(-c3cnc(C)nc3)cc12 | < 1000 |
| COCCNc1ncc(-c2ccc3c(c2)c(C(C)=O)cn3CC(=O)N2C[C@H](F)C[C@H]2C(=O)Nc2cccc(Br)n2)cn1 | < 1000 |
| CC(=O)c1cn(CC(=O)N2C[C@H](F)C[C@H]2C(=O)Nc2cccc(Br)n2)c2ccc(-c3cnc4ccnn4c3)cc12 | < 1000 |
| CC(=O)c1nn(CC(=O)N2C[C@H](F)C[C@H]2C(=O)Nc2cccc(OC(F)(F)F)c2C#N)c2ccc(-c3cnc(C)nc3)cc12 | < 1000 |
| CC(=O)c1nn(CC(=O)N2C[C@H](F)C[C@H]2C(=O)Nc2cccc(Br)n2)c2ccc(-c3nc4ccccc4[nH]3)cc12 | < 1000 |
| CC(=O)c1nn(CC(=O)N2C[C@H](F)C[C@H]2C(=O)NC[C@@H]2CC2(Cl)Cl)c2ccc(-c3cnc(C)nc3)cc12 | < 1000 |
| CC(=O)c1nn(CC(=O)N2[C@H](C(=O)NCc3cccc(Cl)c3F)C[C@@]3(C)C[C@@H]23)c2ccc(-c3cnc(C)nc3)cc12 | < 1000 |
| CC(=O)c1nn(CC(=O)N2C[C@H](F)C[C@H]2C(=O)Nc2nn(CC(F)(F)F)cc2C)c2ccc(-c3cnc(C)nc3)cc12 | < 1000 |
| CC(=O)c1nn(CC(=O)N2C[C@@](F)(CO)C[C@H]2C(=O)Nc2cccc(Br)n2)c2ccc(-c3cnc(C)nc3)cc12 | < 1000 |
| CC(=O)c1nn(CC(=O)N2C[C@H](F)C[C@H]2C(=O)N[C@H](C)[C@H]2CC2(Cl)Cl)c2ccc(-c3cnc(C)nc3)cc12 | < 1000 |

| Structure (SMILES) | IC50 [nM] |
| --- | --- |
| CCn1ccc(NC(=O)[C@@H]2C[C@@H](F)CN2C(=O)Cn2nc(C(C)=O)c3cc(-c4cnc(C)nc4)ccc32)n1 | < 1000 |
| CC(=O)c1nn(CC(=O)N2C[C@H](F)C[C@H]2C(=O)NC[C@H]2CC2(Cl)Cl)c2ccc(-c3cnc(C)nc3)cc12 | < 1000 |
| CC(=O)c1nn(CC(=O)N2[C@@H]3C[C@@H]3C[C@H]2C(=O)Nc2nc(Br)ccc2C)c2ccc(-c3cnc(C)nc3)cc12 | < 1000 |
| Cc1cc2ncc(-c3ccc4c(c3)c(C(N)=O)nn4CC(=O)N3C[C@H](F)C[C@H]3C(=O)Nc3cccc(OC(F)(F)F)c3F)cn2n1 | < 1000 |
| CC(=O)c1nn(CC(=O)N2C[C@H](F)C[C@H]2C(=O)Nc2cccc(Br)n2)c2ccc(-c3cnc([S+](C)[O-])nc3)cc12 (stereo partly specified) | < 1000 |
| CC(=O)c1nn(CC(=O)N2[C@@H]3C[C@@H]3C[C@H]2C(=O)Nc2cccc(Br)n2)c2ccc(-c3cnc(NC(C)C)nc3)cc12 | < 1000 |
| COc1ccc(Br)nc1NC(=O)[C@@H]1C[C@@H](F)CN1C(=O)Cn1nc(C(C)=O)c2cc(-c3cnc(C)nc3)ccc21 | < 1000 |
| CC(=O)c1nn(CC(=O)N2C[C@H](F)C[C@H]2C(=O)Nc2cccc(Br)c2)c2ccc(-c3cnc(C)nc3)cc12 | < 1000 |
| CCOC(=O)Cc1ncc(-c2ccc3c(c2)c(C(C)=O)nn3CC(=O)N2C[C@H](F)C[C@H]2C(=O)Nc2nc(Br)ccc2C)cn1 | < 1000 |
| CC(=O)c1nn(CC(=O)N2[C@H](C(=O)NCC3CC3(Cl)Cl)C[C@@]3(C)C[C@@H]23)c2ccc(-c3cnc(C)nc3)cc12 (stereo partly specified) | < 1000 |
| COCCNc1ncc(-c2ccc3c(c2)c(C(C)=O)cn3CC(=O)N2[C@@H]3C[C@@H]3C[C@H]2C(=O)Nc2cccc(Br)n2)cn1 | < 1000 |
| CC(=O)c1nn(CC(=O)N2C[C@H](F)C[C@H]2C(=O)N[C@@H]2C[C@H]2c2ccccc2Cl)c2ccc(-c3cnc(C)nc3)cc12 | < 1000 |
| CC(=O)c1nn(CC(=O)N2C[C@H](F)C[C@H]2C(=O)Nc2cccc(C)n2)c2ccc(-c3cnc(C)nc3)cc12 | < 1000 |
| CC(=O)c1nn(CC(=O)N2[C@@H]3C[C@@H]3C[C@H]2C(=O)NC/C(F)=C(/C)c2ccccc2)c2ccc(-c3cnc(C)nc3)cc12 | < 1000 |
| CC(=O)c1nn(CC(=O)N2C[C@H](F)C[C@H]2C(=O)Nc2ccc(F)c(Br)c2F)c2ccc(-c3cnc(C)nc3)cc12 | < 1000 |
